Experiment [1] relates to MDA-231-LNA primary tumours. Kind of experiment: Combination study, MDA-231-LNA orthotopic xenograft model. Format: in vivo, Balb/c SCID mice. The settings on record: Avastin 12.5 mg/kg i.p. twice weekly; compound 16 (citrate salt) p.o. 54 mg/kg BID.
From the text: Mice harvested for tumour immunohistochemical analysis were not included in Kaplan-Meier analysis.
All bars represent the mean±S.E.M of n=7 mice per group. *p<0.05 and **p<0.01 by one-way ANOVA.
Experiment [2] concerns MDA-231-LNA cells. The settings on record: 3 days.
The test system of experiment [3] is taxane-sensitive (SKOV3ip1 and HeyA8) and taxane-resistant (HeyA8-MDR) ovarian cancer cell lines. The settings on record: in vitro; cited from earlier work.
The subject of experiment [4] is HeyA8, SKOV3ip1, and HeyA8-MDR models. The settings on record: compared with vehicle-treated controls; cited from earlier work.

Consider 5 compounds from patent publication US9012461B2, “FAK inhibitors” (priority 2011, dated 2015).

Avastin: in experiment [1], the median survival time worked out at 24 days.

Turning to `NC(=O)Cc1ccccc1CCc1nc(Nc2ccc(C3CCNC3)cc2)ncc1C(F)(F)F` (stereo not drawn) [Compound 35, 2-(2-(2-(2-((4-(pyrrolidin-3-yl)phenyl)amino)-5-(trifluoromethyl)pyrimidin-4-yl)ethyl)phenyl)acetamide], in experiment [2], the concentration for half-maximal inhibition (IC50) is > 10 µM.

For the compound `NC(=O)Cc1cccnc1CCc1nc(Nc2ccc(C3CCNCC3)cc2)ncc1C(F)(F)F` [Compound 32, 2-(2-(2-(2-((4-(Piperidin-4-yl)phenyl)amino)-5-(trifluoromethyl)pyrimidin-4-yl)ethyl)pyridin-3-yl)acetamide], the concentration for half-maximal inhibition (IC50) in experiment [2] was > 5 µM.

With `CCN1CCC(c2ccc(Nc3ncc(C(F)(F)F)c(CCc4ncccc4CC(N)=O)n3)cc2)CC1` [Compound 38, 2-(2-(2-(2-((4-(1-Ethylpiperidin-4-yl)phenyl)amino)-5-(trifluoromethyl)pyrimidin-4-yl)ethyl)pyridin-3-yl)acetamide], the IC50 in experiment [2] is > 10 µM.

With `CNC(=O)c1ccccc1Nc1nc(Nc2ccc(N3CCOCC3)cc2OC)ncc1Cl` [TAE226], the “phosphorylation of FAK” value in experiment [3] is “inhibited the phosphorylation of FAK at both Y397 and Y861 sites”. In addition, the “reduction of tumour burden” value in experiment [4] is reported as 46-64%.

In general, IC50 refers to the concentration at which inhibition is half-maximal. Lower therefore signals greater potency.
